Results: PMC9379910, “Chimeric Ligands of Pili and Lectin A Inhibit Tolerance, Persistence, and Virulence Factors of Pseudomonas aeruginosa over a Wide Range of Phenotypes” (ACS Infectious Diseases, 2022)
pIC50, pKd: −log10 of the molar value.

Experiments:
LecA [1] = target: T1, LecA (Pseudomonas aeruginosa, UniProt Q05097); test: competitive fluorescence polarization (displacement of βGal-aryl-Dansyl from […] LecA); also motility-enabled binding assay
LecA [2] = target: T1, LecA; test: competitive fluorescence polarization (displacement of βGal-aryl-Dansyl from […] LecA); assay type: binding
LecA [3] = target: T1, LecA; test: direct fluorescence polarization titration with LecA ([…]); assay type: binding

T1 sequence (Q05097 2-122): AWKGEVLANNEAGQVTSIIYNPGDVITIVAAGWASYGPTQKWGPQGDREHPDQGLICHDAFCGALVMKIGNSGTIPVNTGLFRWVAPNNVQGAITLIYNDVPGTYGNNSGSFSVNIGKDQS

CCCCCCCC(C)CC(C)CCO[C@@H]1O[C@H](CO)[C@@H](O[C@H]2O[C@H](CO)[C@@H](O)[C@H](O)[C@H]2O)[C@H](O)[C@H]1O (stereo partly drawn) [1a, 3,5-diMeDβM]
pIC50 (LecA [1]): 4.82

CCCCCCCC(C)CC(C)CCO[C@@H]1O[C@H](CO)[C@@H](O[C@@H]2O[C@H](CO)[C@@H](O)[C@H](O)[C@H]2O)[C@H](O)[C@H]1O (stereo partly drawn) [1b, 3,5-diMeDβC]
pIC50 (LecA [2]): 4.89

CN(C)c1cccc2c(S(=O)(=O)Nc3ccc(O[C@@H]4O[C@H](CO)[C@H](O)[C@H](O)[C@H]4O)cc3)cccc12 [βGal-aryl-Dansyl]
pKd (LecA [3]): ~4.97
